The values that follow are results of earlier work, collected in PMC3272643 (Organic process research & development, 2012).

The series relates to peptide-cleaving proteases.

With gramicidin S, the “resistance to peptide-cleaving proteases” value is recorded as “significant resistance to peptide-cleaving proteases”.
